From PubChem BioAssay AID1919007 (Molecular Pharmacology Branch, DTP, NCI, 2023)

Test system: A498 complex spheroids with HUVEC/MSC, growth
Assay: Anticancer human tumor A498 cell line growth inhibition [AhR];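 further: seven day exposure starting three days after spheroid seeding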;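 on viability, T/C: luminescence signal used as a surrogate for viable cells; luminescence viability scaled so 100% equals DMSO vehicle wells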
Conditions: for IC50: curve of first compound; for viability, T/C: stronger effect = lower value
Procedure, shortened: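 Spheroids combined tumor cells with HUVEC endothelial cells and human MSCs as stroma. AhR antagonists were paired with standard or investigational drugs, each dosed in half-log steps down from near clinical Cmax, or from 10 microM where Cmax was unknown.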

[1] = second compound 0.1 µM, first compound 0.0316 µM
[2] = second compound 0.1 µM, first compound 0.1 µM
[3] = second compound 0.316 µM, first compound 0.0316 µM
[4] = second compound 0.316 µM, first compound 0.1 µM
[5] = second compound 1 µM, first compound 0.0316 µM
[6] = second compound 1 µM, first compound 0.1 µM
[7] = second compound 3.16 µM, first compound 0.0316 µM
[8] = second compound 3.16 µM, first compound 0.1 µM
[9] = second compound 10 µM, first compound 0.0316 µM
[10] = second compound 10 µM, first compound 0.1 µM

Structure (SMILES): CC1(C)CCC(CN2CCN(c3ccc(C(=O)NS(=O)(=O)c4ccc(NCC5CCOCC5)c([N+](=O)[O-])c4)c(Oc4cnc5[nH]ccc5c4)c3)CC2)=C(c2ccc(Cl)cc2)C1 + CC(CO)NC(=O)c1cc(-c2ccc(Cl)cc2)nn(-c2cnn(C)c2)c1=O
- IC50 (second compound 0.1 µM): 5.41 µM
- IC50 (second compound 0.316 µM): 5.05 µM
- IC50 (second compound 1 µM): 4.9 µM
- IC50 (second compound 3.16 µM): 3.97 µM
- IC50 (second compound 10 µM): 3.8 µM
- viability, T/C [1]: 98.3%
- viability, T/C [2]: 98%
- viability, T/C (second compound 0.1 µM, first compound 0.316 µM): 94.3%
- viability, T/C (second compound 0.1 µM, first compound 1 µM): 86.4%
- viability, T/C (second compound 0.1 µM, first compound 3.16 µM): 75.1%
- viability, T/C (second compound 0.1 µM, first compound 10 µM): 23.6%
- viability, T/C [3]: 91.1%
- viability, T/C [4]: 92.3%
- viability, T/C (second compound 0.316 µM, first compound 0.316 µM): 85.7%
- viability, T/C (second compound 0.316 µM, first compound 1 µM): 84.7%
- viability, T/C (second compound 0.316 µM, first compound 3.16 µM): 69.7%
- viability, T/C (second compound 0.316 µM, first compound 10 µM): 21.6%
- viability, T/C [5]: 82.5%
- viability, T/C [6]: 85.1%
- viability, T/C (second compound 1 µM, first compound 0.316 µM): 86.4%
- viability, T/C (second compound 1 µM, first compound 1 µM): 79.5%
- viability, T/C (second compound 1 µM, first compound 3.16 µM): 68.8%
- viability, T/C (second compound 1 µM, first compound 10 µM): 20.3%
- viability, T/C [7]: 77.5%
- viability, T/C [8]: 79.4%
- viability, T/C (second compound 3.16 µM, first compound 0.316 µM): 79.4%
- viability, T/C (second compound 3.16 µM, first compound 1 µM): 63.3%
- viability, T/C (second compound 3.16 µM, first compound 3.16 µM): 61.2%
- viability, T/C (second compound 3.16 µM, first compound 10 µM): 20.6%
- viability, T/C [9]: 64.3%
- viability, T/C [10]: 69.5%
- viability, T/C (second compound 10 µM, first compound 0.316 µM): 66.1%
- viability, T/C (second compound 10 µM, first compound 1 µM): 59.4%
- viability, T/C (second compound 10 µM, first compound 3.16 µM): 56.8%
- viability, T/C (second compound 10 µM, first compound 10 µM): 22.4%

Structure (SMILES): CCN(c1cc(-c2ccc(CN3CCOCC3)cc2)cc(C(=O)NCc2c(C)cc(C)[nH]c2=O)c1C)C1CCOCC1 + CC(CO)NC(=O)c1cc(-c2ccc(Cl)cc2)nn(-c2cnn(C)c2)c1=O
- IC50 (second compound 0.1 µM): > 3 µM
- IC50 (second compound 0.316 µM): > 3 µM
- IC50 (second compound 1 µM): > 3 µM
- IC50 (second compound 3.16 µM): > 3 µM
- IC50 (second compound 10 µM): > 3 µM
- viability, T/C (second compound 0.1 µM, first compound 0.00949 µM): 99.8%
- viability, T/C (second compound 0.1 µM, first compound 0.03 µM): 95%
- viability, T/C (second compound 0.1 µM, first compound 0.0949 µM): 97.8%
- viability, T/C (second compound 0.1 µM, first compound 0.3 µM): 95.6%
- viability, T/C (second compound 0.1 µM, first compound 0.949 µM): 102%
- viability, T/C (second compound 0.1 µM, first compound 3 µM): 103%
- viability, T/C (second compound 0.316 µM, first compound 0.00949 µM): 93.2%
- viability, T/C (second compound 0.316 µM, first compound 0.03 µM): 101%
- viability, T/C (second compound 0.316 µM, first compound 0.0949 µM): 97.8%
- viability, T/C (second compound 0.316 µM, first compound 0.3 µM): 93.3%
- viability, T/C (second compound 0.316 µM, first compound 0.949 µM): 96.1%
- viability, T/C (second compound 0.316 µM, first compound 3 µM): 98.9%
- viability, T/C (second compound 1 µM, first compound 0.00949 µM): 94.4%
- viability, T/C (second compound 1 µM, first compound 0.03 µM): 95.8%
- viability, T/C (second compound 1 µM, first compound 0.0949 µM): 103%
- viability, T/C (second compound 1 µM, first compound 0.3 µM): 92.3%
- viability, T/C (second compound 1 µM, first compound 0.949 µM): 95.4%
- viability, T/C (second compound 1 µM, first compound 3 µM): 97.4%
- viability, T/C (second compound 3.16 µM, first compound 0.00949 µM): 84.3%
- viability, T/C (second compound 3.16 µM, first compound 0.03 µM): 96.2%
- viability, T/C (second compound 3.16 µM, first compound 0.0949 µM): 101%
- viability, T/C (second compound 3.16 µM, first compound 0.3 µM): 88.5%
- viability, T/C (second compound 3.16 µM, first compound 0.949 µM): 85.6%
- viability, T/C (second compound 3.16 µM, first compound 3 µM): 102%
- viability, T/C (second compound 10 µM, first compound 0.00949 µM): 72.7%
- viability, T/C (second compound 10 µM, first compound 0.03 µM): 77.5%
- viability, T/C (second compound 10 µM, first compound 0.0949 µM): 83.3%
- viability, T/C (second compound 10 µM, first compound 0.3 µM): 75.3%
- viability, T/C (second compound 10 µM, first compound 0.949 µM): 70.3%
- viability, T/C (second compound 10 µM, first compound 3 µM): 75.9%

Structure (SMILES): Cn1ncnc1C1c2n[nH]c(=O)c3cc(F)cc(c23)NC1c1ccc(F)cc1 (stereo not given) + CC(CO)NC(=O)c1cc(-c2ccc(Cl)cc2)nn(-c2cnn(C)c2)c1=O
- IC50 (second compound 0.1 µM): > 0.1 µM
- IC50 (second compound 0.316 µM): > 0.1 µM
- IC50 (second compound 1 µM): > 0.1 µM
- IC50 (second compound 3.16 µM): > 0.1 µM
- IC50 (second compound 10 µM): > 0.1 µM
- viability, T/C (second compound 0.1 µM, first compound 0.000316 µM): 100%
- viability, T/C (second compound 0.1 µM, first compound 0.001 µM): 102%
- viability, T/C (second compound 0.1 µM, first compound 0.00316 µM): 106%
- viability, T/C (second compound 0.1 µM, first compound 0.01 µM): 95.1%
- viability, T/C [1]: 91.4%
- viability, T/C [2]: 92.4%
- viability, T/C (second compound 0.316 µM, first compound 0.000316 µM): 99.5%
- viability, T/C (second compound 0.316 µM, first compound 0.001 µM): 103%
- viability, T/C (second compound 0.316 µM, first compound 0.00316 µM): 101%
- viability, T/C (second compound 0.316 µM, first compound 0.01 µM): 88.5%
- viability, T/C [3]: 87.6%
- viability, T/C [4]: 87.8%
- viability, T/C (second compound 1 µM, first compound 0.000316 µM): 100%
- viability, T/C (second compound 1 µM, first compound 0.001 µM): 95.7%
- viability, T/C (second compound 1 µM, first compound 0.00316 µM): 103%
- viability, T/C (second compound 1 µM, first compound 0.01 µM): 94.1%
- viability, T/C [5]: 93.5%
- viability, T/C [6]: 91.2%
- viability, T/C (second compound 3.16 µM, first compound 0.000316 µM): 91%
- viability, T/C (second compound 3.16 µM, first compound 0.001 µM): 94.1%
- viability, T/C (second compound 3.16 µM, first compound 0.00316 µM): 92.1%
- viability, T/C (second compound 3.16 µM, first compound 0.01 µM): 80.2%
- viability, T/C [7]: 77.8%
- viability, T/C [8]: 79.1%
- viability, T/C (second compound 10 µM, first compound 0.000316 µM): 74.3%
- viability, T/C (second compound 10 µM, first compound 0.001 µM): 71.7%
- viability, T/C (second compound 10 µM, first compound 0.00316 µM): 75.9%
- viability, T/C (second compound 10 µM, first compound 0.01 µM): 69%
- viability, T/C [9]: 68.5%
- viability, T/C [10]: 67.1%
